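Test compounds were applied to cells in 96-well plates for 48 hours at 5 doses. TGI marks complete inhibition of growth.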
Key:
Experiment in all cases: growth of human tumour cells (NCI), 48 h
SNB-75 CNS = tested on: SNB-75 CNS
CCRF-CEM leukemia = tested on: CCRF-CEM leukemia
SF-539 CNS = tested on: SF-539 CNS
RXF 393 renal = tested on: RXF 393 renal
U251 CNS = tested on: U251 CNS
UACC-257 melanoma = tested on: UACC-257 melanoma
XF 498 CNS = tested on: XF 498 CNS
SNB-78 CNS = tested on: SNB-78 CNS
OVCAR-4 ovarian = tested on: OVCAR-4 ovarian
NCI-H23 lung = tested on: NCI-H23 lung
TK-10 renal = tested on: TK-10 renal
ACHN renal = tested on: ACHN renal
SR leukemia = tested on: SR leukemia
HCC-2998 colon = tested on: HCC-2998 colon
UACC-62 melanoma = tested on: UACC-62 melanoma
SK-MEL-28 melanoma = tested on: SK-MEL-28 melanoma
LOX IMVI melanoma = tested on: LOX IMVI melanoma
DLD-1 colon = tested on: DLD-1 colon
MALME-3M melanoma = tested on: MALME-3M melanoma
A498 renal = tested on: A498 renal
OVCAR-3 ovarian = tested on: OVCAR-3 ovarian
SF-268 CNS = tested on: SF-268 CNS
HL-60(TB) leukemia = tested on: HL-60(TB) leukemia
HCT-116 colon = tested on: HCT-116 colon
M19-MEL melanoma = tested on: M19-MEL melanoma
K-562 leukemia = tested on: K-562 leukemia
MOLT-4 leukemia = tested on: MOLT-4 leukemia
EKVX NSCLC = tested on: EKVX NSCLC
LXFL 529 NSCLC = tested on: LXFL 529 NSCLC
HT29 colon = tested on: HT29 colon
SK-OV-3 ovarian = tested on: SK-OV-3 ovarian
NCI-H460 lung = tested on: NCI-H460 lung
NCI-H522 lung = tested on: NCI-H522 lung
OVCAR-5 ovarian = tested on: OVCAR-5 ovarian
M14 melanoma = tested on: M14 melanoma
KM12 colon = tested on: KM12 colon
SK-MEL-2 melanoma = tested on: SK-MEL-2 melanoma
DMS 114 small cell lung = tested on: DMS 114 small cell lung
UO-31 renal = tested on: UO-31 renal
SN12C renal = tested on: SN12C renal
HOP-62 NSCLC = tested on: HOP-62 NSCLC
SNB-19 CNS = tested on: SNB-19 CNS
NCI-H226 lung = tested on: NCI-H226 lung
SK-MEL-5 melanoma = tested on: SK-MEL-5 melanoma
COLO 205 colon = tested on: COLO 205 colon
IGROV1 ovarian = tested on: IGROV1 ovarian
DMS 273 small cell lung = tested on: DMS 273 small cell lung
786-0 renal = tested on: 786-0 renal
HCT-15 colon = tested on: HCT-15 colon
RPMI-8226 leukemia = tested on: RPMI-8226 leukemia
SW-620 colon = tested on: SW-620 colon
A549 NSCLC = tested on: A549 NSCLC
HOP-92 NSCLC = tested on: HOP-92 NSCLC
SF-295 CNS = tested on: SF-295 CNS
CAKI-1 renal = tested on: CAKI-1 renal
KM20L2 colon = tested on: KM20L2 colon
OVCAR-8 ovarian = tested on: OVCAR-8 ovarian

Measured: TGI

COc1c(Cl)cc(Cl)cc1S(=O)O
not listed: NCI-H226 lung | SK-MEL-5 melanoma | COLO 205 colon | IGROV1 ovarian | DMS 273 small cell lung | 786-0 renal | HCT-15 colon | RPMI-8226 leukemia | SW-620 colon | A549 NSCLC | HOP-92 NSCLC | SF-295 CNS | CAKI-1 renal | KM20L2 colon | OVCAR-8 ovarian
> 100 µM: all other assays above

CCCCN(CCCC)CC(C(=O)Nc1ccccc1)/C(C)=N\NC(=O)c1ccncc1 (centres undefined)
not listed: CCRF-CEM leukemia | A498 renal | EKVX NSCLC | LXFL 529 NSCLC | SK-MEL-2 melanoma
> 100 µM: all other assays above

Nc1cc(C(=O)NC2C3CC4CC(C3)CC2C4)[nH]c(=S)n1 (centres undefined)
not listed: TK-10 renal | ACHN renal | UACC-62 melanoma | LOX IMVI melanoma | OVCAR-5 ovarian | KM12 colon | SK-MEL-2 melanoma | DMS 114 small cell lung | COLO 205 colon | DMS 273 small cell lung | RPMI-8226 leukemia | SF-295 CNS
> 100 µM: all other assays above

From PubChem BioAssay (NCI)
